# According to US4360509A, “Vivo radioassay process” (priority 1979, dated 1982):
# Entries after “also recorded” stand apart in the source; their conditions may differ.
# What was measured:
# bacterial abscesses = assay: Gamma camera scintigraphy of bacterial abscesses in goats; format: in vivo; conditions: goat; for abscess visibility by gamma camera, adjoining bacterial abscesses of 2 months and three days old: about 1 mCi, imaged the next day
# Method: Bacterial abscesses were also evoked in goats in accordance with the following procedure: 4 Droppings (faeces) of goats were stirred in 10 ml phosphate-buffered, saline solution (pH 7.2), emulsified in 10 ml mineral oil (Freund's complete adjuvant), and injected subcutaneously into four goats (2.5 ml per goat) at the left flank of the abdomen. Within a day the goats developed fever (temperature rose from 39.3° to over 40° C.) and a firm abscess with a diameter of about 10 cm. appeared.
# In order to prepare granulocyte suspensions blood was sampled from a goat via the neck vein, and anticoagulated by the addition of heparin. The granulocytes were purified by a known sedimentation technique. The separation fluid consisted of: 10 Parts of Isopaque (sodium metrizoate) (32.8%) mixed with 24 parts Ficoll (Pharmacia) 8% (in H2 O). The density was: 1.077 g/ml. Equal parts of anticoagulated blood and 0.9% NaCl were mixed and 20 ml of the mixture was layered over 10 ml of Isopaque-Ficoll in a centrifuge tube. The mixture was centrifuged at 1000 g for 15 minutes. After centrifugation the mononuclear cells (monocytes and lymphocytes) were found as a narrow band at the interface between the plasma layer and the separation fluid. The layer above the erythrocyte sediment, also containing granulocytes, was removed down to 1 to 2 mm above the erythrocyte meniscus. The erythrocyte layer was mixed with a 3 to 5 fold volume of phosphate-buffered saline solution and centrifuged for 7 minutes at 1200 g. The supernatant was pipetted-off down to the erythrocyte meniscus. The erythrocytes were lysed by addition of 30 ml 155 mM NH4 Cl solution (also containing 10 mM KHCO3 0.1 mM EDTA) pH 7.4, mixing and 15 minutes storage at 4° C. After centrifugation (400 g) the granulocytes were resuspended in NH4 Cl solution (15 ml) 0.5% albumin and stored 15 minutes at 4° C. After microscopic control the cells were washed in PBS containing 0.5% albumin and were consecutively suspended in 5 ml PBS containing 0.5% albumin. In that condition the cells are ready for indium-111-oxinate labeling.
# Indium-111-oxinate labeled granulocytes were made by the Thakur procedure. In this preparation 2×50 ml conical centrifuge tubes are sterilized at 120° C. for 2 hours. In-111 Cl3 (Byk-Mallinckrodt CIL B.V.) 0.1 M HCl solution (5 mCi/ml) is used. 1 ml H2 O is added for injection, as are 50 μl oxine (BDH or Merck) solution (1 mg/ml in ethanol), and 200 μl acetate buffer 0.3 M pH 5.6 after a short wait of about a minute. The In-111-oxinate is extracted into about 2 ml CHCl3, and is evaporated to dryness by heating in a water bath. The material is dissolved in 100 μl absolute ethanol and again evaporated and dissolved in 50 μl absolute ethanol. […]
# [1] = Tissue distribution of In-111 in goats with bacterial abscesses (radioactivity per gram of tissue, scintillation counter); conditions: goat
# Method: The distribution of In-111 was determined in the different organs and tissues of three goats. One goat was injected with In-111-oxinate labeled autologous granulocytes, one with plain In-111-oxinate and one with plain In-111-chloride. The injections with the isotope formulations took place 2 days before the animals were sacrificed and dissected. Pieces of abscess, organs and tissues were sampled, weighed and the radioactivity was measured in a scintillation counter. The radioactivities per gram of tissue were determined.
# The tissue distribution of In-111 in the goat was determined to show the distribution of radioactivity among the organs.
# In order to illustrate the process of the invention a goat with adjoining bacterial abscesses of 2 months and three days old was injected with In-111-oxinate (ca. 1 mCi). The goat was imaged by gamma camera the next day. […] The goat was sacrificed and the distribution of radioactivity between the different tissues and organs determined.
# The goat that was intravenously injected with In-111-chloride was dissected two days after the injection, and the distribution of radioactivity among the different tissues and organs determined.
# [2] = Method: The clearance of In-111 from the blood of the goats was followed after intravenous injection of In-111 in three different formulations, namely In-111-chloride, In-111-oxinate and In-111-oxinate labeled granulocytes, respectively, in order to determine the biological half life for each of these different formulations. After injection, 10 ml blood samples were taken at intervals. All blood samples were subjected to differential centrifugation in order to determine whether the radioactivity was localized in the plasma, platelets, red cell fraction or leukocytes. Platelet rich plasma (PRP) was prepared by centrifugation of heparinised blood at 200 g during 15 minutes. After sampling of the PRP (1 ml) the residue was centrifuged at 1600 g for 10 minutes. 1 ml samples were taken from the plasma layer (platelet poor plasma=PPP), from the interface between plasma and red cells (leukocytes) and from the red cell fraction. The radioactivities were determined and clearance was determined corrected for physical decay.
# The clearance of In-111 from the blood of goats was followed after intravenous injection of In-111 in three different goats and formulations,namely, In-111-chloride, In-111-oxinate and In-111-oxinate labeled granulocytes, respectively, in order to determine the biological half-life of In-111.
# The clearance of In-111 in a goat which was injected with In-111-oxinate labeled granulocytes was also studied.
# blood cells = assay: Washing of blood cells with PBS (binding of radioactivity to blood cells after injection); conditions: goat blood cells
# [3] = intravenous, two days after the injection
structure (smiles),measurement,setting,value
[Cl][111In]([Cl])[Cl] [In-111-chloride],"abscess visibility by gamma camera, adjoining bacterial abscesses of 2 months and three days old",bacterial abscesses,well-visible spot
same,"abscess visibility by gamma camera, bacterial abscesses of 2 months and three days old, subcutaneous injection","bacterial abscesses; ca. 1 mCi, accidental subcutaneous injection, twenty-four hours later","distinct, well-visible spot"
same,spread of radioactivity after subcutaneous injection,"bacterial abscesses; ca. 1 mCi, subcutaneous","spread via the peripheral vascular system, not via the neck vein to the heart and the lungs"
same,accumulation of In-111 in the cell fraction of the blood (tissue distribution study),[1],only a small amount of In-111 accumulated in the blood cells
same,radioactivity in pus of the old and new abscesses,[1],hardly any radioactivity
same,radioactivity in the kidney,[1]; 2 days after injection,strongly labeled
same,radioactivity of inflamed lymph node relative to a non-inflamed one,[1]; 2 days after injection,three
same,"accumulation of In-111 in fat, urine and gall",[1]; [3],no significant accumulation of In-111
same,accumulation of radioactivity in intraperitoneally penetrated part of the abscess,[1]; [3],"slightly higher accumulation of radioactivity, but the accumulation was less than in the old abscess in the In-111-oxinate study"
same,accumulation of radioactivity in the spleen and liver,[1]; [3],moderate accumulations of radioactivity
same,distribution of blood radioactivity between plasma and cells,[1]; [3],"Most of the radioactivity was in the plasma, not in the cells"
same,labeling of the blood,[1]; [3],very moderately labeled
same,radioactivity in tissue of old and new abscesses,[1]; [3],"moderate radioactivity, somewhat more than lymph node and muscle, far less than ovarium, uterus, lung and kidney"
same,"clearance of indium from blood, four days","[2]; goat, intravenous",almost disappeared in four days
same,"clearance of indium from blood, level within two days","[2]; goat, intravenous",decline to a very low level of radioactivity within two days
same,binding of radioactivity to blood cells on washing with PBS,blood cells,could be easily washed out; also recorded: could be washed out by PBS
[111In+3].[O-]c1cccc2cccnc12.[O-]c1cccc2cccnc12.[O-]c1cccc2cccnc12 [In-111-oxinate],"abscess visibility by gamma camera, adjoining bacterial abscesses of 2 months and three days old",bacterial abscesses,clear spot
same,accumulation of In-111 in the cell fraction of the blood (tissue distribution study),[1],"strong accumulation of In-111 in the cell fraction of the blood, almost as much as the radioactivity per gram of tissue of the spleen"
same,"accumulation of radioactivity in fat, muscle, marrow from the femur, gall, faeces, pancreas and urine",[1],no significant accumulation of radioactivity
same,accumulation of radioactivity in heart muscle,[1],moderate accumulation of In-111
same,radioactivity in pus of the old and new abscesses,[1],little radioactivity
same,accumulation of In-111 in tissue of the old abscess,[1]; 2 months old abscess,"high accumulation of In-111, similar to the kidney and ovarium"
same,radioactivity of inflamed lymph node relative to a non-inflamed one,[1]; 2 days after injection,two
same,radioactivity accumulation in tissue of the new abscess,[1]; three days old abscess,"moderate radioactivity accumulation more than, for example, the lymph node and muscles, but far less than ovarium, uterus, lung, kidney, spleen and blood"
same,course of radioactivity in blood after injection (another goat),[2]; another goat,gradual decrease of radioactivity immediately after the goat was injected
same,preference of the cells for the agent (another experiment in another goat),[2]; another goat,strong preference of the cells
same,preference of indium-111 for white cells,"[2]; another goat, sample had about an equal amount of plasma",no preference of indium-111 for white cells
same,time of optimal accumulation in the cell fraction of the blood,"[2]; goat, after injection",five
same,In-111 activity level in blood after two days,"[2]; goat, intravenous",very slow decline of the activity level
same,"In-111 level in the blood, first two days","[2]; goat, intravenous",gradual increase of In-111 in the blood for two days
same,radioactivity in the blood one week later,"[2]; goat, intravenous",still a significant amount of radioactivity in the blood
same,preference of In-111 for the cell fraction of the blood,"[2]; goat, intravenous, clearance study",clear preference of In-111 to accumulate in the cell fraction of the blood
same,binding of radioactivity to blood cells on washing with PBS,blood cells,firmly bound
